The source of these data is patent US20250171437A1 (Agios Pharmaceuticals,Inc., priority 2022, published 2025).

The structures appear in SMILES notation.

The target in this assay is T1, human PAH with the R408W mutation (A375 R408W cells) (Homo sapiens, UniProt P00439, R408W).
T1 construct: expressed in transfected cells
T1 sequence (P00439 1-452 R408W): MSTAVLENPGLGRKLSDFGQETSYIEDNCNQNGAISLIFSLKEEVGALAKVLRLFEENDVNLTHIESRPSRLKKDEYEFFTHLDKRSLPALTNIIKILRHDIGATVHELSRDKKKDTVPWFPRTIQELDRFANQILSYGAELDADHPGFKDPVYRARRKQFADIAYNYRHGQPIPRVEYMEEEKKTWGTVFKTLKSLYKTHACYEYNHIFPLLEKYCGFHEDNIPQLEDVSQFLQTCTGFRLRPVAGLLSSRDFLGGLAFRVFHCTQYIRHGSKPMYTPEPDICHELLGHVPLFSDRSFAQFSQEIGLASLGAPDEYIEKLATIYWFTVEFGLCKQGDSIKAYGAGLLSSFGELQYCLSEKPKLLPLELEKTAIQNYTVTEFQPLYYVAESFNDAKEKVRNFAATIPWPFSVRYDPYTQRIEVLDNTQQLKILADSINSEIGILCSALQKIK
Briefly: Cell Based Phenylalanine Flux Assay. Conditions: A375 R408W cells; 24 hrs with compound, then 20 μM sepiapterin and 800 μM 13C9,15N-Phenylalanine for 4 hours; 13C-Tyrosine by LC-MS; average where tested multiple times. The method in brief:
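AC50 is derived from LC-MS of 13C-tyrosine in the media after a 4 h pulse of 800 μM 13C9,15N-phenylalanine plus 20 μM sepiapterin. The A375 R408W PAH cells had received duplicate 10-point, 2-fold compound dilutions (0.5% DMSO) for 24 h beforehand.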
For orientation: AC50 means the midpoint of the concentration-response curve, whichever way the signal moves. Take `O=C(c1ocnc1CF)N1CCc2[nH]cnc2[C@@H]1c1nc2cc(F)ccc2o1` [Example 180, (R)-(4-(5-fluorobenzo[d]oxazol-2-yl)-6,7-dihydro-1H-imidazo[4,5-c]pyridin-5(4H)-yl)(4-(fluoromethyl)oxazol-5-yl)methanone]: the AC50 lay within 1 to 5 µM. Under `CN1CCN(c2cn3ncc(C(=O)N4CCc5[nH]cnc5[C@H]4c4nc5cc(F)ccc5o4)c3cc2Cl)CC1` [Example 181, (S)-(5-chloro-6-(4-methylpiperazin-1-yl)pyrazolo[1,5-a]pyridin-3-yl)(4-(5-fluorobenzo[d]oxazol-2-yl)-6,7-dihydro-1H-imidazo[4,5-c]pyridin-5(4H)-yl)methanone] stands ≤ 0.5 µM; under `CN1CCN(c2cn3ncc(C(=O)N4CCc5[nH]cnc5[C@@H]4c4nc5cc(F)ccc5o4)c3cc2Cl)CC1` [Example 182, (R)-(5-chloro-6-(4-methylpiperazin-1-yl)pyrazolo[1,5-a]pyridin-3-yl)(4-(5-fluorobenzo[d]oxazol-2-yl)-6,7-dihydro-1H-imidazo[4,5-c]pyridin-5(4H)-yl)methanone], 1 to 5 µM. For the compound `O=C(c1cnn(CC(F)(F)F)c1C(F)F)N1CCc2[nH]cnc2[C@H]1c1nc2cc(F)ccc2o1` [Example 183, (S)-(5-(difluoromethyl)-1-(2,2,2-trifluoroethyl)-1H-pyrazol-4-yl)(4-(5-fluorobenzo[d]oxazol-2-yl)-6,7-dihydro-1H-imidazo[4,5-c]pyridin-5(4H)-yl)methanone], the AC50 is 0.5 to 1 µM.

On to `O=C(c1cnn(CC(F)(F)F)c1C(F)F)N1CCc2[nH]cnc2[C@@H]1c1nc2cc(F)ccc2o1` [Example 184, (R)-(5-(difluoromethyl)-1-(2,2,2-trifluoroethyl)-1H-pyrazol-4-yl)(4-(5-fluorobenzo[d]oxazol-2-yl)-6,7-dihydro-1H-imidazo[4,5-c]pyridin-5(4H)-yl)methanone], for which the AC50 fell in the range of 1 to 5 µM.

For `Cc1nc(C(C)(C)C#N)oc1C(=O)N1CCc2[nH]cnc2[C@H]1c1nc2cc(F)ccc2o1` [Example 185, (S)-2-(5-(4-(5-fluorobenzo[d]oxazol-2-yl)-4,5,6,7-tetrahydro-1H-imidazo[4,5-c]pyridine-5-carbonyl)-4-methyloxazol-2-yl)-2-methylpropanenitrile], the AC50 lay within 0.5 to 1 µM. Under `Cc1nc(C(C)(C)C#N)oc1C(=O)N1CCc2[nH]cnc2[C@@H]1c1nc2cc(F)ccc2o1` [Example 186, (R)-2-(5-(4-(5-fluorobenzo[d]oxazol-2-yl)-4,5,6,7-tetrahydro-1H-imidazo[4,5-c]pyridine-5-carbonyl)-4-methyloxazol-2-yl)-2-methylpropanenitrile] stands 1 to 5 µM.

Take `CC(C)(O)c1nc(C(F)F)c(C(=O)N2CCc3[nH]cnc3[C@H]2c2nc3ccc(F)cc3o2)o1` [Example 187, (S)-(4-(difluoromethyl)-2-(2-hydroxypropan-2-yl)oxazol-5-yl)(4-(6-fluorobenzo[d]oxazol-2-yl)-6,7-dihydro-1H-imidazo[4,5-c]pyridin-5(4H)-yl)methanone]: the AC50 is ≤ 0.5 µM.

On to `CC(C)(O)c1nc(C(F)F)c(C(=O)N2CCc3[nH]cnc3[C@@H]2c2nc3ccc(F)cc3o2)o1` [Example 188, (R)-(4-(difluoromethyl)-2-(2-hydroxypropan-2-yl)oxazol-5-yl)(4-(6-fluorobenzo[d]oxazol-2-yl)-6,7-dihydro-1H-imidazo[4,5-c]pyridin-5(4H)-yl)methanone], for which the AC50 was 1 to 5 µM. Turning to `O=C(c1ccnn1C(F)F)N1CCc2[nH]cnc2[C@H]1c1nc2ccc(F)cc2o1` [Example 189, (S)-(1-(difluoromethyl)-1H-pyrazol-5-yl)(4-(6-fluorobenzo[d]oxazol-2-yl)-6,7-dihydro-1H-imidazo[4,5-c]pyridin-5(4H)-yl)methanone], the AC50 lay in the range of 0.5 to 1 µM. Turning to `O=C(c1ccnn1C(F)F)N1CCc2[nH]cnc2[C@@H]1c1nc2ccc(F)cc2o1` [Example 190, (R)-(1-(difluoromethyl)-1H-pyrazol-5-yl)(4-(6-fluorobenzo[d]oxazol-2-yl)-6,7-dihydro-1H-imidazo[4,5-c]pyridin-5(4H)-yl)methanone], the AC50 lay within 1 to 5 µM. In the case of `Cn1cc(-c2nnc(C(=O)N3CCc4[nH]cnc4[C@H]3c3nc4cccc(F)c4o3)o2)cn1` [Example 191, (S)-(4-(7-fluorobenzo[d]oxazol-2-yl)-6,7-dihydro-1H-imidazo[4,5-c]pyridin-5(4H)-yl)(5-(1-methyl-1H-pyrazol-4-yl)-1,3,4-oxadiazol-2-yl)methanone] it was 0.5 to 1 µM. In the case of `Cn1cc(-c2nnc(C(=O)N3CCc4[nH]cnc4[C@@H]3c3nc4cccc(F)c4o3)o2)cn1` [Example 192, (R)-(4-(7-fluorobenzo[d]oxazol-2-yl)-6,7-dihydro-1H-imidazo[4,5-c]pyridin-5(4H)-yl)(5-(1-methyl-1H-pyrazol-4-yl)-1,3,4-oxadiazol-2-yl)methanone] it was 1 to 5 µM; in that of `CC(C)(O)c1nc(C(F)F)c(C(=O)N2CCc3[nH]cnc3[C@H]2c2nc3cccc(F)c3o2)o1` [Example 193, (S)-(4-(difluoromethyl)-2-(2-hydroxypropan-2-yl)oxazol-5-yl)(4-(7-fluorobenzo[d]oxazol-2-yl)-6,7-dihydro-1H-imidazo[4,5-c]pyridin-5(4H)-yl)methanone], ≤ 0.5 µM; in that of `CC(C)(O)c1nc(C(F)F)c(C(=O)N2CCc3[nH]cnc3[C@@H]2c2nc3cccc(F)c3o2)o1` [Example 194, (R)-(4-(difluoromethyl)-2-(2-hydroxypropan-2-yl)oxazol-5-yl)(4-(7-fluorobenzo[d]oxazol-2-yl)-6,7-dihydro-1H-imidazo[4,5-c]pyridin-5(4H)-yl)methanone], ≤ 0.5 µM. With `O=C(c1ccnn1C(F)F)N1CCc2[nH]cnc2[C@H]1c1nc2cccc(F)c2o1` [Example 195, (S)-(1-(difluoromethyl)-1H-pyrazol-5-yl)(4-(7-fluorobenzo[d]oxazol-2-yl)-6,7-dihydro-1H-imidazo[4,5-c]pyridin-5(4H)-yl)methanone], the AC50 is ≤ 0.5 µM. On to `O=C(c1ccnn1C(F)F)N1CCc2[nH]cnc2[C@@H]1c1nc2cccc(F)c2o1` [Example 196, (R)-(1-(difluoromethyl)-1H-pyrazol-5-yl)(4-(7-fluorobenzo[d]oxazol-2-yl)-6,7-dihydro-1H-imidazo[4,5-c]pyridin-5(4H)-yl)methanone], for which the AC50 was in the range of 1 to 5 µM. In the case of `Cn1cc(-c2nnc(C(=O)N3CCc4[nH]cnc4[C@H]3c3nc4c(F)cccc4o3)o2)cn1` [Example 197, (S)-(4-(4-fluorobenzo[d]oxazol-2-yl)-6,7-dihydro-1H-imidazo[4,5-c]pyridin-5(4H)-yl)(5-(1-methyl-1H-pyrazol-4-yl)-1,3,4-oxadiazol-2-yl)methanone] it was 0.5 to 1 µM. For `Cn1cc(-c2nnc(C(=O)N3CCc4[nH]cnc4[C@@H]3c3nc4c(F)cccc4o3)o2)cn1` [Example 198, (R)-(4-(4-fluorobenzo[d]oxazol-2-yl)-6,7-dihydro-1H-imidazo[4,5-c]pyridin-5(4H)-yl)(5-(1-methyl-1H-pyrazol-4-yl)-1,3,4-oxadiazol-2-yl)methanone], the AC50 lay within 1 to 5 µM. In the case of `CC(C)(O)c1nc(C(F)F)c(C(=O)N2CCc3[nH]cnc3[C@H]2c2nc3c(F)cccc3o2)o1` [Example 199, (S)-(4-(difluoromethyl)-2-(2-hydroxypropan-2-yl)oxazol-5-yl)(4-(4-fluorobenzo[d]oxazol-2-yl)-6,7-dihydro-1H-imidazo[4,5-c]pyridin-5(4H)-yl)methanone] it was ≤ 0.5 µM.
